Laboratory results as given in patent US20150104507A1 (UCB PHARMA GMBH, priority 2010, published 2015).
Values joined by “and” are separate entries in the source; they are usually repeats but may differ in a detail not shown here. Identical values can stand only once. Like-named read-outs stand apart in the source and are kept apart here.

Key:
[1] = Thorough QT trial: dizziness as adverse event vs tmax; type: in vivo; conditions: human, plasma, oral; day 6 of SP640; range 1-4 h; read-out: tmax, time for maximum LCM plasma concentration (median)
Protocol: In a thorough QT trial safety profile of lacosamide (LCM) was characterized. During day 2-6 of multiple dose administration of an IR formulation (Vimpat®) of 200 or 400 mg LCM bid 45 times ‘DIZZINESS’ was detected as adverse event (AE). Time of onset was 1.4+/−0.8 h after actual administration of LCM. This corresponds exactly to the typical time for maximum LCM plasma concentration tmax (e.g., 1 h (median, range 1-4 h) at day 6 of SP640).

[2] = PK-PD modeling of seizure frequency (Emax model, Example 54); type: in vivo, human; conditions: human, plasma, read-out: Corresponding AUCτ,ss
Description: (§1) Objectives of the PK-PD analysis were to evaluate and describe the correlation between the LCM plasma concentration over time (PK parameter) and the reduction of daily seizures over time (PD parameter) based on the pooled data from the previous clinical human trials.
(§2) The evaluation of PK-PD modeling was done based on the Emax model.
(§3) The slope of the linear regression is equal to the mean daily number of seizures.
(§4) In a first step, the validity of the developed equations for approximation of AUCτ,ss, the PK parameter of interest in the current PK-PD evaluation, was shown.
(§5) Based on the relative difference of the individual slopes during Titration and Maintenance Phase vs Baseline slope and the approximated AUCτ,ss,m, the PK-PD evaluation was performed using a linear model, the Emax model, and the Emax 100 model. […] Finally, the Emax model had the lowest weighted sum of squares and was therefore selected as the most appropriate PK-PD model to describe the data. […] The AUC50 is defined as the AUCτ,ss that is needed in individuals to achieve 50% of the maximum effect (decrease in seizure frequency).

[3] = system: subjects with partial-onset seizures; assay: as above; type: in vivo, human
Description: as §1, §2, §3, §4, §5

[4] = cited from earlier work
[5] = AUC of 67 μg/mL*h (mean dose 200 mg LCM bid)
[6] = Emax model, daily dose 50 mg bid (subject with Vd 50 L, ke 0.06 h^-1)
[7] = Emax model, daily dose 100 mg bid (subject with Vd 50 L, ke 0.06 h^-1)
[8] = Emax model, daily dose 110 mg bid (subject with Vd 50 L, ke 0.06 h^-1), AUC50
[9] = Emax model, daily dose 150 mg bid (subject with Vd 50 L, ke 0.06 h^-1)
[10] = Emax model, daily dose 200 mg bid (subject with Vd 50 L, ke 0.06 h^-1)
[11] = Emax model, daily dose 250 mg bid (subject with Vd 50 L, ke 0.06 h^-1)
[12] = Emax model, daily dose 300 mg bid (subject with Vd 50 L, ke 0.06 h^-1)

## COC[C@@H](NC(C)=O)C(=O)NCc1ccccc1 [Lacosamide, (R)-2-Acetamido-N-benzyl-3-methoxypropionamide]
[1]
  Tmax: 1 h
[2]; 50 mg
  AUC: 16700 ng·h/mL
[2]; 100 mg
  AUC: 33300 ng·h/mL
[2]; 110 mg
  AUC: 35900 ng·h/mL
[2]; 150 mg
  AUC: 50000 ng·h/mL
[2]; 200 mg
  AUC: 66700 ng·h/mL
[2]; 250 mg
  AUC: 83300 ng·h/mL
[2]; 300 mg
  AUC: 100000 ng·h/mL
[3]; [5]
  decrease as percent of the maximum effect: 65%
  decrease of the daily number of seizures: 46%
[3]; Emax model, N = 615 subjects
  AUC50 (AUC needed to achieve half of the maximum effect), arithmetic mean (SD): 35.9 (185.6) μg/mL*h
  AUC50, 1st quantile: 0 µg·h/mL
  AUC50, 3rd quantile: 27.27 µg·h/mL
  AUC50, median: 1.05 µg·h/mL
  AUC50, range: 0 to 3998 µg·h/mL
  Emax, 3rd quantile: 100%
  Emax, arithmetic mean (SD): 71.0 (30.0) %
  Emax, median: 77.0%
  Emax, range: 0.06-100%
[3]; Emax model, pooled clinical trials, adjunctive LCM
  Emax, maximum effect (reduction of the seizure frequency vs baseline): 71%
[3]; Emax model, pooled clinical trials, listed as LCM
  AUC50 (AUC at steady-state to achieve half of the maximum decrease in partial seizure frequency), mean: 35 µg·h/mL and 35.9 µg·h/mL
[3]; [6]
  Decrease of daily number of seizures, E(AUC) % of Emax: 31.7 % of Emax
  Decrease of daily number of seizures, E(AUC) % of base line: 22.5 % of base line
[3]; [7]
  Decrease of daily number of seizures, E(AUC) % of Emax: 48.1 % of Emax
  Decrease of daily number of seizures, E(AUC) % of base line: 34.2 % of base line
[3]; [8]
  Decrease of daily number of seizures, E(AUC) % of Emax: 50 % of Emax
  Decrease of daily number of seizures, E(AUC) % of base line: 35.1 % of base line
[3]; [9]
  Decrease of daily number of seizures, E(AUC) % of Emax: 58.2 % of Emax
  Decrease of daily number of seizures, E(AUC) % of base line: 41.3 % of base line
[3]; [10]
  Decrease of daily number of seizures, E(AUC) % of Emax: 65.0 % of Emax
  Decrease of daily number of seizures, E(AUC) % of base line: 46.1 % of base line
[3]; [11]
  Decrease of daily number of seizures, E(AUC) % of Emax: 69.9 % of Emax
  Decrease of daily number of seizures, E(AUC) % of base line: 49.6 % of base line
[3]; [12]
  Decrease of daily number of seizures, E(AUC) % of Emax: 73.6 % of Emax
  Decrease of daily number of seizures, E(AUC) % of base line: 52.2 % of base line
[3]; in vivo
  decrease as percent of the maximum effect: 74%
  decrease of the daily number of (partial) seizures: 52%
[4]; IR tablets twice daily, average distribution volume 50 litres
  maximum dosage-normalized steady state plasma level (Cmax, ss, norm): 40 to 43 ng/mL/mg
[4]; IR tablets, after administration
  Tmax: 1.4 to 1.5 h
[4]; in vivo
  elimination half-life: 13 to 14 h
[4]; oral
  bioavailability: ~100%
